The values that follow come from patent US9200046B2, “Reporter system for high throughput screening of compounds and uses thereof” (priority 2011, dated 2015).

The assay has as its target Nrf2-Keap1 complex (Homo sapiens, UniProt Q14145). Description: cell-based. It is filed as cell-based. The settings on record: for activation at 16 µM / activation at 32 µM: 3 h; for activation at 16 µM: read-out: Activation 100 nL; for activation at 32 µM: read-out: Activation 200 nL.
[1] abbreviates: Table 1A, 100 nL compound, screen run at 16 and 32 μM, 3 hr.
[2] abbreviates: Table 1A, 200 nL compound, screen run at 16 and 32 μM, 3 hr.
[3] abbreviates: Table 2, 100 nL compound, screen run at 16 and 32 μM, 3 hr.
[4] abbreviates: Table 2, 200 nL compound, screen run at 16 and 32 μM, 3 hr.

Where a name gives a salt, the structure may show the parent alone. Read-outs that look alike come from different tables or passages of the source.

Nrf2-Keap1 complex, sequence (Q14145 whole entry, one chain of several): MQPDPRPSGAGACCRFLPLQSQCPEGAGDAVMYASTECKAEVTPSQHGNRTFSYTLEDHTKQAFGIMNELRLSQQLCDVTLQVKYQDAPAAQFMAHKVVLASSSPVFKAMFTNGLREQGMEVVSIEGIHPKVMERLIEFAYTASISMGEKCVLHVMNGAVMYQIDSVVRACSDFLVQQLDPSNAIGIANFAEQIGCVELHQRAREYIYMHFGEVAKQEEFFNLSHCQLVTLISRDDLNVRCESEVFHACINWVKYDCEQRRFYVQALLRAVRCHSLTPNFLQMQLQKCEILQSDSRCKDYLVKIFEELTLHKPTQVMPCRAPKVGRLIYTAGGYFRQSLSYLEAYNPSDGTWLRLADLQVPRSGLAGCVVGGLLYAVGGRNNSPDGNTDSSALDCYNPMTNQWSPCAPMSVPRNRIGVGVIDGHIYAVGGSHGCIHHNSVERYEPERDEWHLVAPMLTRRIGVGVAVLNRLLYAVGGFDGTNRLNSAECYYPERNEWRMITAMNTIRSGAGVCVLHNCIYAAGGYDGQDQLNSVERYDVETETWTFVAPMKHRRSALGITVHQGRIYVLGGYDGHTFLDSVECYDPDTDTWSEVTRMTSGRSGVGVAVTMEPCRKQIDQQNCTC

For `NC(=O)c1ccc(N)nc1` [6-AMINONICOTINAMIDE], the activation at 16 µM came out at 26% and the activation at 32 µM came out at 1%. In addition, the “100 nL (luminescence)” value under setting [1] is recorded as 756. Further, the “200 nL (luminescence)” value under setting [2] is listed as 344.
Take `CC(=O)O[C@H]1CCC2(C)C3=C(CCC2C1(C)C)[C@@]1(C)CC[C@@H](C(C)CCC=C(C)C)[C@]1(C)CC3` (some centres unmarked) [EUPHOLACETATE]: the “Activation 100 nL” value is reported as 89% and the “Activation 200 nL” value is on record as 111%. In addition, the “100 nL (luminescence)” value under setting [3] came out at 1710. The “200 nL (luminescence)” value under setting [4] worked out at 2020.
Take `COc1ccc2cc1Oc1ccc(cc1)C[C@H]1c3cc(c(OC)cc3CCN1C)Oc1c(OC)c(OC)cc3c1[C@H](C2)N(C)CC3` [TETRANDRINE]: the activation at 16 µM turned out to be 85% and the activation at 32 µM was determined as 18%. Also, the “100 nL (luminescence)” value under setting [1] is listed as 1660. Also, the “200 nL (luminescence)” value under setting [2] is given as 596.
For the compound `NCCCCNCCCN` [SPERMIDINETRIHYDROCHLORIDE], the activation at 16 µM turned out to be 72% and the activation at 32 µM amounted to 22%. Under setting [3], the “100 nL (luminescence)” value was 1000. The “200 nL (luminescence)” value under setting [4] is listed as 860.
Regarding `CCOC(=O)CCC(=O)O[C@H]1[C@H](O[C@@H]2[C@@H](C)[C@H](O[C@H]3C[C@@](C)(OC)[C@@H](O)[C@H](C)O3)[C@@H](C)C(=O)O[C@H](CC)[C@@](C)(O)[C@H](O)[C@@H](C)C(=O)[C@H](C)C[C@@]2(C)O)O[C@H](C)C[C@@H]1N(C)C` [ERYTHROMYCINETHYLSUCCINATE, reference compound], the activation at 16 µM amounted to 41% and the activation at 32 µM was -20%.
For the compound `CC(C)c1cccc(=O)c(O)c1` [HINOKITIOL], the activation at 16 µM worked out at 29% and the activation at 32 µM was determined as 1%. Under setting [3], the “100 nL (luminescence)” value is on record as 860. Also, the “200 nL (luminescence)” value under setting [4] is recorded as 372.
With `O=C(/C=C/C(=O)Oc1ccccc1C(=O)O)Oc1ccccc1C(=O)O` [BISSALICYLFUMARATE], the activation at 16 µM worked out at 338% and the activation at 32 µM was found to be 156%.
Take `CC(C)[C@@H](C)/C=C/[C@@H](C)[C@H]1CC[C@H]2C3=CC=C4C[C@@H](O)CC[C@]4(C)[C@H]3CC[C@]12C` [ERGOSTEROL]: the activation at 16 µM worked out at 86% and the activation at 32 µM was 86%. Further, the “100 nL (luminescence)” value under setting [3] worked out at 1676. Besides, the “200 nL (luminescence)” value under setting [4] came to 1640.
`COc1ccc(/C=C/C(=O)c2ccc(O)cc2O)cc1` [2′,4′-DIHYDROXY-4-METHOXYCHALCONE]: the activation at 16 µM stood at 246% and the activation at 32 µM amounted to 121%. Further, the “100 nL (luminescence)” value under setting [3] turned out to be 4576. Moreover, the “200 nL (luminescence)” value under setting [4] came out at 2720.
Take `COc1cc(C/C=C/c2ccccc2)c(OC)cc1O` [VIOLASTYRENE]: the activation at 16 µM worked out at 133% and the activation at 32 µM worked out at 50%. Further, the “100 nL (luminescence)” value under setting [3] is given as 2388. In addition, the “200 nL (luminescence)” value under setting [4] is on record as 1096.
Consider `O=C1CN(/N=C/c2ccc([N+](=O)[O-])o2)C(=O)N1` [NITROFURANTOIN, reference compound], for which the activation at 16 µM worked out at 30% and the activation at 32 µM is 47%.
Regarding `C=C(C)[C@@H]1CC[C@]2(C(=O)O)CC[C@]3(C)[C@H](CC[C@@H]4[C@@]5(C)CC[C@H](O)C(C)(C)[C@@H]5CC[C@]43C)[C@@H]12` [BETULINICACID], the activation at 16 µM came to 54% and the activation at 32 µM is 85%.
Regarding `CC1(C)[N+]([O-])=[N+]([O-])C1(C)Br` (centres unmarked), the “Activation 100 nL” value stood at 55% and the “Activation 200 nL” value is reported as 83%. Further, the “100 nL (luminescence)” value under setting [3] is reported as 1308. Also, the “200 nL (luminescence)” value under setting [4] turned out to be 1976.
Consider `CCOP(=S)(OCC)Oc1nc(Cl)c(Cl)cc1Cl` [CHLORPYRIFOS], for which the activation at 16 µM was 90% and the activation at 32 µM stood at 55%. In addition, under setting [3], the “100 nL (luminescence)” value came out at 1572. Further, the “200 nL (luminescence)” value under setting [4] is given as 1704.
As for `COC(=O)Nc1nc2ccc(Sc3ccccc3)cc2[nH]1` [FENBENDAZOLE, reference compound], the activation at 16 µM was determined as 224% and the activation at 32 µM is -24%. Moreover, under setting [1], the “100 nL (luminescence)” value is listed as 4908. Also, the “200 nL (luminescence)” value under setting [2] stood at 92.
As to `C[C@@H]1C(=O)O[C@H]2[C@H]1CC[C@@]1(C)C=CC(=O)[C@@]3(C)O[C@@]213` [EPOXY(4,5alpha)-4,5-DIHYDROSANTONIN], the “Activation 100 nL” value is recorded as 227% and the “Activation 200 nL” value is 186%. Further, under setting [3], the “100 nL (luminescence)” value amounted to 3828. For the same compound, the “200 nL (luminescence)” value under setting [4] came out at 3164.
As for `CC(C)=CCCC1(C)C=Cc2c(O)c3c(c(CC=C(C)C)c2O1)OC12C(CC4CC1C(C)(C)OC2(C/C=C(/C)C(=O)O)C4O)C3=O` (centres unmarked) [TETRAHYDROGAMBOGICACID], the “Activation 100 nL” value stood at 383% and the “Activation 200 nL” value worked out at 100%. Also, under setting [3], the “100 nL (luminescence)” value was determined as 5480. Besides, the “200 nL (luminescence)” value under setting [4] is 2748.
As for `COc1cc([C@@H]2c3cc4c(cc3[C@H](O)[C@H]3COC(=O)[C@@H]23)OCO4)cc(OC)c1OC` [PICROPODOPHYLLOTOXIN], the activation at 16 µM worked out at 32% and the activation at 32 µM came to 57%. For the same compound, the “100 nL (luminescence)” value under setting [3] is reported as 848. Also, the “200 nL (luminescence)” value under setting [4] is given as 1196.
With `CC(=O)Nc1ccc(O)cc1` [ACETAMINOPHEN, reference compound], the “100 nL (luminescence)” value came to 996, the “200 nL (luminescence)” value amounted to 1012, the “Neh2-luc reporter activation” value is reported as “more than 50%” and the activation at 16 µM came to 53%. Moreover, the activation at 32 µM turned out to be 32%.
With `CC(=O)O[C@@H]1C[C@H]2C(C)(C)C(=O)CC[C@]2(C)[C@H]2CC[C@@]3(C)[C@H](c4ccoc4)OC(=O)[C@H]4O[C@]43[C@@]21C` [DIHYDROGEDUNIN], the activation at 16 µM was found to be 112% and the activation at 32 µM turned out to be 114%. Besides, the “100 nL (luminescence)” value under setting [3] is 1866. Moreover, the “200 nL (luminescence)” value under setting [4] was 3068.
`CCCCCCCCCCCCCC(=O)O[C@@H]1[C@@H](C)[C@@]2(O)[C@@H](C=C(CO)C[C@]3(O)C(=O)C(C)=C[C@@H]23)[C@@H]2C(C)(C)[C@]12OC(C)=O` [PHORBOLMYRISTATEACETATE, reference compound]: the activation at 16 µM is 47% and the activation at 32 µM is 16%. Moreover, under setting [3], the “100 nL (luminescence)” value came to 776. In addition, the “200 nL (luminescence)” value under setting [4] was determined as 712.
Consider `CC(C)c1ccc2c(c1O)CC[C@H]1C3=C(CC[C@]21C)C(=O)OC3` [TRIPTOPHENOLIDE], for which the activation at 16 µM came out at 35% and the activation at 32 µM is -3%. Under setting [3], the “100 nL (luminescence)” value came to 832. Besides, under setting [4], the “200 nL (luminescence)” value is listed as 390.
Regarding `O=C(/C=C/c1ccccc1)c1ccc(O)cc1O` [2′,4′-DIHYDROXYCHALCONE], the activation at 16 µM was determined as 227% and the activation at 32 µM worked out at 45%. Also, under setting [3], the “100 nL (luminescence)” value turned out to be 2352. The “200 nL (luminescence)” value under setting [4] is listed as 1388.
Take `CC(=O)O[C@H]1CC[C@]2(C)C(C[C@@H](OC(C)=O)[C@]3(C)C4=CC(=O)O[C@H](c5ccoc5)[C@@]4(C)CCC23)C1(C)C` (stereo partly drawn) [3-DEOXO-3beta-ACETOXYDEOXYDIHYDROGEDUNIN]: the “Activation 100 nL” value came out at 59% and the “Activation 200 nL” value came to 61%. In addition, the “100 nL (luminescence)” value under setting [3] turned out to be 1256. In addition, under setting [4], the “200 nL (luminescence)” value was 1252.
